# In the supplement of paper PMC10307832:
# Key:
# Experiment in all cases: relative viability (nuclei count vs DMSO), 5 days (fraction); higher = more cells survive
# Axitinib + Bortezomib = compound: CNC(=O)c1ccccc1Sc1ccc2c(/C=C/c3ccccn3)n[nH]c2c1 [Axitinib] + CC(C)C[C@H](NC(=O)[C@H](Cc1ccccc1)NC(=O)c1cnccn1)B(O)O [Bortezomib] (partner 0.002 µM)
# Summary of the method: (§1)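 For relative viability, nuclei counts in treated wells were divided by those in vehicle wells. Lung cancer cell lines had been pin-tool dosed in 1536-well plates the day after seeding and cultured for 5 days, then fixed and stained in one step (final 0.05% Triton X-100, 1% formaldehyde, 1 ug/ml Hoechst) and imaged at 4×. Doses were one drug alone or a fixed anchor-drug dose plus five library-drug doses (not always all listed) in √10 steps, and values are duplicate-plate medians.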
# Axitinib + Tozasertib = compound: CNC(=O)c1ccccc1Sc1ccc2c(/C=C/c3ccccn3)n[nH]c2c1 [Axitinib] + Cc1cc(Nc2cc(N3CCN(C)CC3)nc(Sc3ccc(NC(=O)C4CC4)cc3)n2)n[nH]1 [Tozasertib] (partner 0.1 µM)
# Summary of the method: as §1
# Axitinib + Olaparib = compound: CNC(=O)c1ccccc1Sc1ccc2c(/C=C/c3ccccn3)n[nH]c2c1 [Axitinib] + O=C(c1cc(Cc2n[nH]c(=O)c3ccccc23)ccc1F)N1CCN(C(=O)C2CC2)CC1 [Olaparib] (partner 8 µM)
# Summary of the method: as §1
# Bemcentinib + Linsitinib = compound: Nc1nc(Nc2ccc3c(c2)CC[C@@H](N2CCCC2)CC3)nn1-c1cc2c(nn1)-c1ccccc1CCC2 [Bemcentinib] + C[C@]1(O)C[C@@H](c2nc(-c3ccc4ccc(-c5ccccc5)nc4c3)c3c(N)nccn32)C1 [Linsitinib] (partner 1 µM)
# Summary of the method: as §1
cell line,measurement,setting,value
NCI-H650,relative viability,Axitinib + Bortezomib; first compound 0.005 µM,0.739
same,relative viability,Axitinib + Bortezomib; first compound 0.01581 µM,0.944
same,relative viability,Axitinib + Bortezomib; first compound 0.05 µM,0.683
same,relative viability,Axitinib + Bortezomib; first compound 0.1581 µM,0.7
same,relative viability,Axitinib + Bortezomib; first compound 0.5 µM,0.816
same,relative viability,Axitinib + Tozasertib; first compound 0.005 µM,0.714
same,relative viability,Axitinib + Tozasertib; first compound 0.01581 µM,0.734
same,relative viability,Axitinib + Tozasertib; first compound 0.05 µM,0.699
same,relative viability,Axitinib + Tozasertib; first compound 0.1581 µM,0.693
same,relative viability,Axitinib + Tozasertib; first compound 0.5 µM,0.78
same,relative viability,Axitinib + Olaparib; first compound 0.005 µM,0.403
same,relative viability,Axitinib + Olaparib; first compound 0.01581 µM,0.389
same,relative viability,Axitinib + Olaparib; first compound 0.05 µM,0.394
same,relative viability,Axitinib + Olaparib; first compound 0.1581 µM,0.406
same,relative viability,Axitinib + Olaparib; first compound 0.5 µM,0.444
same,relative viability,Bemcentinib + Linsitinib; first compound 0.04 µM,0.976
same,relative viability,Bemcentinib + Linsitinib; first compound 0.1265 µM,0.982
same,relative viability,Bemcentinib + Linsitinib; first compound 0.4 µM,0.974
same,relative viability,Bemcentinib + Linsitinib; first compound 1.265 µM,0.823
same,relative viability,Bemcentinib + Linsitinib; first compound 4 µM,0.774
